Results: ChEMBL document CHEMBL1201862, “PubChem BioAssay data set” (2004)
The source made the active and inactive calls.

Assays:
[1] = tested on: Streptococcus sp. 'group A'; test: growth inhibition of control SK(-) GAS strain, dose response, counter-screen for streptokinase expression inhibitor project, luminescence, kanamycin, BacTiterGlo, confirmation (AID 1900); format: functional, organism-based
Streptokinase A = target: T1, Streptokinase A (Streptococcus pyogenes serotype M1, UniProt P10520); test: S. pyogenes streptokinase expression inhibitors, potency, dose response, plasminogen activation absorbance, OD405 (AID 1914); format: functional, Streptococcus pyogenes M1 GAS;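 also: secreted streptokinase activity via plasminogen activation per viability signal from cell pellet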
T1 sequence (P10520 whole entry): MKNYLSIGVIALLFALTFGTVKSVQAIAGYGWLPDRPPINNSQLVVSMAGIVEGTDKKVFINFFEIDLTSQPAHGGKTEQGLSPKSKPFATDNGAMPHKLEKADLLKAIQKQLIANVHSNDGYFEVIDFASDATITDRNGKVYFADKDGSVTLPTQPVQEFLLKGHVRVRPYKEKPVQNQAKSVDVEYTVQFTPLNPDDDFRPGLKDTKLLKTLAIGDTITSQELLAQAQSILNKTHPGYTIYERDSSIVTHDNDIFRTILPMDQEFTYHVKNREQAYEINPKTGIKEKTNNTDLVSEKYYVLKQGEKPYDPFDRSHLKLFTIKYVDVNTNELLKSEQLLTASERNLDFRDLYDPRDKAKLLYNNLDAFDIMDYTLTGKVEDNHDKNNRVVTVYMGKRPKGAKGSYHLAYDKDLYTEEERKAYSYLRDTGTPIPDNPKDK

Streptococcus = test: Group A Streptococcus viability loss, dose response, counter-screen for streptokinase expression inhibitor project, luminescence, BacTiterGlo (AID 1915); format: functional, organism-based;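 also: potency for reduction of bacterial viability or growth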
[2] = Luminescence Cell-Based Dose Retest to Confirm Inhibitors of Cancer Stem Cells. [Related pubchem assays (depositor defined):AID2717, AID2721]; format: functional; settings: Homo sapiens
Cytochrome P450 2C19 = Cytochrome P450 2C19 (Homo sapiens, UniProt P33261); test: Cytochrome panel assay with activity outcomes. Panel member name: p450-cyp2c19 Compounds with AC50 equal or less than 10 uM are considered active; format: functional; settings: read-out: AC50
Cytochrome P450 1A2 = target: T2, Cytochrome P450 1A2 (Homo sapiens, UniProt P05177);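 also: PubChem cytochrome P450 panel assay, CYP1A2 panel member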
T2 sequence (P05177 whole entry): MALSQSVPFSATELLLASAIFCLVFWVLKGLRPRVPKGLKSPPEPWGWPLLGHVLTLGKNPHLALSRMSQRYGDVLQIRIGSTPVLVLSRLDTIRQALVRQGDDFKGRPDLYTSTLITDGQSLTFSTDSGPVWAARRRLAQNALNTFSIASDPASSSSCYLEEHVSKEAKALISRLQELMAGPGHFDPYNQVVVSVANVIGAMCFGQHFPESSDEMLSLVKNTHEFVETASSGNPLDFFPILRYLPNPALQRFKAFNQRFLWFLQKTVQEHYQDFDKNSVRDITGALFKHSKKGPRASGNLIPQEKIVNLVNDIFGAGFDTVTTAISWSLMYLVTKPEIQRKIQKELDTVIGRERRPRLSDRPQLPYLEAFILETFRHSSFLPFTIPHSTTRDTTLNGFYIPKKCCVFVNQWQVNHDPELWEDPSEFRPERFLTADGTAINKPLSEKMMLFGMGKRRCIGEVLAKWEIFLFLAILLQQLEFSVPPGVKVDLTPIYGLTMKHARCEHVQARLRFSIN

Cytochrome P450 2C9 = Cytochrome P450 2C9 (Homo sapiens, UniProt P11712)
[3] = target: T3, Endoribonuclease toxin MazF (Escherichia coli K-12, UniProt P0AE70); test: MazF toxin RNase activators, dose response, biochemical, fluorescence, single-stranded RNA substrate, uHTS hits (AID 588481); format: functional
T3 sequence (P0AE70 whole entry): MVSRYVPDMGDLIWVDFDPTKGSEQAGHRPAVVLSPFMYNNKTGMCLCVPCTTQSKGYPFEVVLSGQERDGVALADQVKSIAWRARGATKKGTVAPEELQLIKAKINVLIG

[4] = target: T3, Endoribonuclease toxin MazF; test: fluorescent RNA oligo signal without MazF, dose response, counter-screen for MazEF activator project, biochemical, fluorescence, single-stranded RNase substrate (AID 588502); format: functional
[5] = Luminescence Cell-Based Dose Confirmation HTS to Identify Activators of 5'UTR Stem-Loop Driven Alpha-Synuclein mRNA Translation in H4 Neuroglioblastoma Cells. [Related pubchem assays: 1829 (Project Summary), 1814 (Primary HTS)]; format: functional
[6] = Luminescence Cell-Based Dose Response HTS to Identify Activators of Luciferase Translation or Activity in H4 […] Cells. [Related pubchem assays: 1829 (Project Summary), 1814 (Primary HTS)]; format: functional
H4 = test: Luminescence Cell-Based Dose Response HTS to Identify Activators of 5'UTR Stem-Loop Driven Prion Protein mRNA Translation in H4 Neuroglioblastoma Cells. [Related pubchem assays: 1829 (Project Summary), 1814 (Primary HTS)]; format: functional; settings: Homo sapiens
[7] = target: Voltage-dependent T-type calcium channel subunit alpha-1H (Homo sapiens, UniProt O95180); format: functional;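 also: channel activity triggered by adding a high calcium stimulation buffer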
[8] = cytotoxicity in HEK-293T cells, dose response, cytotoxicity control for TCR NF-kB inhibitor project, luminescence, T-cell screen hits (AID 489026); format: functional, cell-based;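 also: cells exposed to compound about 14 hours before the viability readout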
[9] = target: T4, Adenosylmethionine-8-amino-7-oxononanoate aminotransferase (Mycobacterium tuberculosis, UniProt P9WQ81); test: Mycobacterium tuberculosis BioA enzyme inhibitor Measured in Biochemical System Using Plate Reader - 2163-02_Inhibitor_Dose_CherryPick_Activity.; format: functional, Mycobacterium tuberculosis UT205
T4 sequence (P9WQ81 whole entry): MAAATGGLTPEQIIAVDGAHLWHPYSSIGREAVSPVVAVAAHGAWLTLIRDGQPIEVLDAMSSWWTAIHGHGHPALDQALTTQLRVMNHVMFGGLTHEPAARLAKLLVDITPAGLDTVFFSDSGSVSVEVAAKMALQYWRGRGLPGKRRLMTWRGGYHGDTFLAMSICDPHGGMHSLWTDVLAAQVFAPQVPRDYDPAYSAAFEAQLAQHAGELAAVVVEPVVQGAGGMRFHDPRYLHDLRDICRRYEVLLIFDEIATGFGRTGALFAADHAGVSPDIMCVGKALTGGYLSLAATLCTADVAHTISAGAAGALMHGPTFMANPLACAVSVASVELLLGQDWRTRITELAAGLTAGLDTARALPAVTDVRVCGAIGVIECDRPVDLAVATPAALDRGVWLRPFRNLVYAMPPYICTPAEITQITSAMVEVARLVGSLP

Genome polyprotein = Genome polyprotein (dengue virus type 2, UniProt P29990); test: Dengue-2 NS5 methyltransferase inhibitors, primary screen, biochemical, confirmation dose response (AID 588689); format: functional
Cytochrome P450 3A4 = Cytochrome P450 3A4 (Homo sapiens, UniProt P08684);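 also: CYP3A4 tested as one member of a cytochrome P450 panel screen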
Sequence of Cytochrome P450 3A4 (P08684 whole entry): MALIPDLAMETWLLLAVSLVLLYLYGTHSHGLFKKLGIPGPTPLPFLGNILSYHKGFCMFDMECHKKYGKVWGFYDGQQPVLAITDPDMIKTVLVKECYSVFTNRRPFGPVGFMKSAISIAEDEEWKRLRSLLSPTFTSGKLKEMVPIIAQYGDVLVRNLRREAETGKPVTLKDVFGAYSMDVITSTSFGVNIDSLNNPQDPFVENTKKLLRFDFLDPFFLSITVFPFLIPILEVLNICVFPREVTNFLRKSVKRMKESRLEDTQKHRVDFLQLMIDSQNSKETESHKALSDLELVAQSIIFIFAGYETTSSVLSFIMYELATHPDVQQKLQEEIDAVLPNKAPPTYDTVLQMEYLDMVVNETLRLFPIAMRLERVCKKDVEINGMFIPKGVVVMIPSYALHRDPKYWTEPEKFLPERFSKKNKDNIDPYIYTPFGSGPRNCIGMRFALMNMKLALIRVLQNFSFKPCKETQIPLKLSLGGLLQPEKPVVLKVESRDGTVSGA

Sequence of Cytochrome P450 2C9 (P11712 whole entry): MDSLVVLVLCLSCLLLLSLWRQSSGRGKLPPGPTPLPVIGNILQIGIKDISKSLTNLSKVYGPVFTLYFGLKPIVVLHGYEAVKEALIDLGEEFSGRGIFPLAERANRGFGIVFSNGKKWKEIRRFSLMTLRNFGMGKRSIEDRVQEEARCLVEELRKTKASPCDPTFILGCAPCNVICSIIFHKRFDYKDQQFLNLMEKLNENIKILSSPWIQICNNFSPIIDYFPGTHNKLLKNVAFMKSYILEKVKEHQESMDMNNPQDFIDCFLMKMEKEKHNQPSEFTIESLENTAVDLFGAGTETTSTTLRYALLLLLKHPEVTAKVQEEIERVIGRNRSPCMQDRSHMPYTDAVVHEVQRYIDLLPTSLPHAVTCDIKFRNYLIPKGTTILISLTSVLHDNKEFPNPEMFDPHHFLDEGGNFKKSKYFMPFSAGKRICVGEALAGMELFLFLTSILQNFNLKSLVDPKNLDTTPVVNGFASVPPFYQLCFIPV
Sequence of Cytochrome P450 2C19 (P33261 whole entry): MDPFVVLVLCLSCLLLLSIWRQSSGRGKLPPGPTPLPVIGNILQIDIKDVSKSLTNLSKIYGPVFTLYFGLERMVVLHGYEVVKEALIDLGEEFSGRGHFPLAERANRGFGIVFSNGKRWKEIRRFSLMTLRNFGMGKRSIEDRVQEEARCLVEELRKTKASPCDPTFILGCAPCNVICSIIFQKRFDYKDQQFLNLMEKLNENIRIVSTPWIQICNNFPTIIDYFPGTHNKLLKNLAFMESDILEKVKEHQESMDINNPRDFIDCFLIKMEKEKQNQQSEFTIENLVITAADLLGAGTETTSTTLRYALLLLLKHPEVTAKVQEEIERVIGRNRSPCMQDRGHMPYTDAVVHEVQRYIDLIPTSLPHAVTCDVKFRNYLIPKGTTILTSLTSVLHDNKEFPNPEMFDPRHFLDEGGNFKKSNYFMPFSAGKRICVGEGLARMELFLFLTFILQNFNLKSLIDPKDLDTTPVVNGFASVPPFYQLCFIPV
Sequence of Voltage-dependent T-type calcium channel subunit alpha-1H (O95180 whole entry): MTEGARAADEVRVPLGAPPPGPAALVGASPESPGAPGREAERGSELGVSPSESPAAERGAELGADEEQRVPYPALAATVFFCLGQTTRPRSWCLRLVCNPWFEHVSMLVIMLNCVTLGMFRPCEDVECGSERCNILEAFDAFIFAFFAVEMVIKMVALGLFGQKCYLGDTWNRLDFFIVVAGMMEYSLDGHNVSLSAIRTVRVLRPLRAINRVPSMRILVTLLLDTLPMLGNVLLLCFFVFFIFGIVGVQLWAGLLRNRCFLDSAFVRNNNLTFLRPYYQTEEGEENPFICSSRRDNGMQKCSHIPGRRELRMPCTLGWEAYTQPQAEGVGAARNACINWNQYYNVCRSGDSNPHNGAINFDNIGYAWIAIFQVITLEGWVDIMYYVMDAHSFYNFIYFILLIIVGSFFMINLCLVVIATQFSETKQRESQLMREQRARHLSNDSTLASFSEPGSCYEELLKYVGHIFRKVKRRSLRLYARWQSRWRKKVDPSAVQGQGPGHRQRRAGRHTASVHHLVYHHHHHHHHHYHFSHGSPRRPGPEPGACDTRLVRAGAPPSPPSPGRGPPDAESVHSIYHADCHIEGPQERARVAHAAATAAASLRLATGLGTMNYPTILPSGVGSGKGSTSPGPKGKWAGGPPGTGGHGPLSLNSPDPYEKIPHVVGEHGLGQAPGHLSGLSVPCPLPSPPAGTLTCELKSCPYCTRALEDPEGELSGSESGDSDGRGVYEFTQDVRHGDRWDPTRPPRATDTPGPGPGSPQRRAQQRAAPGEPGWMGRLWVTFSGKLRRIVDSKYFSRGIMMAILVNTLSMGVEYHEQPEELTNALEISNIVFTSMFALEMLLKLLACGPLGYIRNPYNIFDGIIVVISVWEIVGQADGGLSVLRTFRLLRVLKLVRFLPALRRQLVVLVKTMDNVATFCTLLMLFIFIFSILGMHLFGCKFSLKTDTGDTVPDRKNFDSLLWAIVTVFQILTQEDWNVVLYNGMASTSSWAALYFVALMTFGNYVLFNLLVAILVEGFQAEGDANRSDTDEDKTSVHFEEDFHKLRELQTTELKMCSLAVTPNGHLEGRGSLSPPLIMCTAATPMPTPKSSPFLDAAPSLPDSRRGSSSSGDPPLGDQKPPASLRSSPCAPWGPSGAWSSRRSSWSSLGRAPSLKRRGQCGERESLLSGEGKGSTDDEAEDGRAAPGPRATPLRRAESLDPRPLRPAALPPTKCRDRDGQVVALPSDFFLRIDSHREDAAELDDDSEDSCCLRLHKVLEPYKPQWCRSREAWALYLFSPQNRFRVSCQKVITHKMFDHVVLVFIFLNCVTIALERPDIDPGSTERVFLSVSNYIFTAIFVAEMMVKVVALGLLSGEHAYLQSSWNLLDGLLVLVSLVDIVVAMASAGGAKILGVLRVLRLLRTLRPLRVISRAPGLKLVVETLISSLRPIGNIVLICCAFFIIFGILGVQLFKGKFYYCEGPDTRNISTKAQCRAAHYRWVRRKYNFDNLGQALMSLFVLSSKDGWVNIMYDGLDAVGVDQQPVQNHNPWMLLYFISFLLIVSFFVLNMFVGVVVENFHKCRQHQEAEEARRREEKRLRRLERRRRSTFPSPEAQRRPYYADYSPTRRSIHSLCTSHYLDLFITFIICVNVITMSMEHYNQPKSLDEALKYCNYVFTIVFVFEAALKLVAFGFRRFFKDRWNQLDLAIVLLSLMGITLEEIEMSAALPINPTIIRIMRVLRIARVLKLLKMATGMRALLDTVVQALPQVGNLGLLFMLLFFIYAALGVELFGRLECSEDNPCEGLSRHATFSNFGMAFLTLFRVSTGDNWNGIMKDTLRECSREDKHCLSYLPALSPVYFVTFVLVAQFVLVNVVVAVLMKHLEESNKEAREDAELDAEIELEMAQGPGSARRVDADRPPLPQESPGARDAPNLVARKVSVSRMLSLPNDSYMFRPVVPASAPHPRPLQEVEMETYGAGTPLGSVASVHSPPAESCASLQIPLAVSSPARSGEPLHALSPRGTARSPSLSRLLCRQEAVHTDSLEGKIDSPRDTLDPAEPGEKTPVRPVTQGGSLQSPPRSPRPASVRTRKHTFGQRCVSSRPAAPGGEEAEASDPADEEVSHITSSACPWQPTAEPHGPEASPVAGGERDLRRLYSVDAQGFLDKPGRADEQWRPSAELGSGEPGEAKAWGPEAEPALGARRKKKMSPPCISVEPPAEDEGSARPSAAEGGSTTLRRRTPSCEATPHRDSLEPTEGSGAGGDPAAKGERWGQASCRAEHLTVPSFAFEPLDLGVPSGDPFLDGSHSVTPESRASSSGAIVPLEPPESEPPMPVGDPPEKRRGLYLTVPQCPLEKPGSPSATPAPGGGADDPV
Sequence of Genome polyprotein (P29990 2492-3391 limits assumed): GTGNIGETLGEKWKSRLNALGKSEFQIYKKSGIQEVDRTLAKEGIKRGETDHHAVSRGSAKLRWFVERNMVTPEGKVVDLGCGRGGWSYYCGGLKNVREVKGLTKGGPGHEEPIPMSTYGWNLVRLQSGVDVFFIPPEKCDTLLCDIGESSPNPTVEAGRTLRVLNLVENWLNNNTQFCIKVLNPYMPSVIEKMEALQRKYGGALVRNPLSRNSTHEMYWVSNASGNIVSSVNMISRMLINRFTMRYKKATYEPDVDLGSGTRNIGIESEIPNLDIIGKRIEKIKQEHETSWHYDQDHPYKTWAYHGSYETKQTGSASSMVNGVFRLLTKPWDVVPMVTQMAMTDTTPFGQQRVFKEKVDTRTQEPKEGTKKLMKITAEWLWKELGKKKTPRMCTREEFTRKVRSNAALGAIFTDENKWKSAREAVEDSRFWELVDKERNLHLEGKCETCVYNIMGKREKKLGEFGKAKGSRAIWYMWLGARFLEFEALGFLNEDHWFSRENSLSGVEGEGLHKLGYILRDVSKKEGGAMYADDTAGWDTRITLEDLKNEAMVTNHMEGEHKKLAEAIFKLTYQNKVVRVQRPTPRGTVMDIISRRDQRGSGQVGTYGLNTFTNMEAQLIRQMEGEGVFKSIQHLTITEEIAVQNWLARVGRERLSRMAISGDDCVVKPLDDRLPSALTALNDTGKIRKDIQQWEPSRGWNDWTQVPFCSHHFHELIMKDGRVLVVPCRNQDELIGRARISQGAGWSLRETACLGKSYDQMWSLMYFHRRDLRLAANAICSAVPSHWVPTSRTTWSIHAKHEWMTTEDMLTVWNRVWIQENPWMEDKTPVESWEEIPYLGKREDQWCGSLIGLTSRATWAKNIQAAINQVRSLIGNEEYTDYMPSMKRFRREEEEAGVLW

## CCNc1nc(Oc2c(Cl)cccc2Cl)cc(C(F)(F)F)n1
[1]
  EC50: 7.68 µM (active)
Streptokinase A
  EC50: 17.6 µM (active)
Streptococcus
  EC50: > 150 µM (not active)
[2]
  AC50: 8.17 µM (active)
Cytochrome P450 2C19
  AC50: 2 µM (inconclusive)
Cytochrome P450 1A2
  AC50: 14.1 µM (inconclusive)
Cytochrome P450 2C9
  AC50: inconclusive

## NNS(=O)(=O)c1ccc(N2CCCC2=O)c([N+](=O)[O-])c1
[3]
  EC50: 82 µM (inactive)
[4]
  EC50: > 99 µM (inactive)

## Cc1nc2ccc(C(=O)OCc3ccccc3Br)cc2nc1C
[5]
  EC50: 10.8 µM (active)
[6]
  EC50: 66.7 µM (active)
H4
  EC50: 0.281 µM (active)
[3]
  EC50: > 99 µM (inactive)
[4]
  EC50: > 99 µM (inactive)

## Cc1ccc(-c2nc3ccccn3c2NCc2ccc3c(c2)OCO3)cc1
[7]
  EC50: 12.8 µM (active)

## Cc1cccc(OCCNC(=O)c2ccc(Cl)c(S(=O)(=O)NCc3cccnc3)c2)c1
[8]
  IC50: > 80 µM (inactive)

## CCC(=O)N1CC[C@@H]2[C@@H](CO)N(C)c3ccc(-c4cccc(F)c4)cc3[C@@H]21
[9]
  AC50: 0.184 µM (active)

## Cc1ccc(S(=O)(=O)N(CC(=O)N/N=C\c2cccs2)c2cccc3cccnc23)cc1
[3]
  EC50: > 99 µM (inactive)
[4]
  EC50: > 99 µM (inactive)

## Nc1scc2c(C(=O)O)nn(-c3ccccc3)c(=O)c12
Genome polyprotein
  IC50: 45 µM (active)

## COc1cc(N)c(Cl)cc1C(=O)NC1CCN(Cc2ccccc2)CC1 [CLEBOPRIDE]
Cytochrome P450 1A2
  AC50: 12.6 µM (inconclusive)
Cytochrome P450 3A4
  AC50: 3.16 µM (inconclusive)
Cytochrome P450 2C9
  AC50: inconclusive

## COc1ccc2c(c1O)-c1c(OC)c(OC)cc3c1[C@H](C2)N(C)CC3 [ISOCORYDINE]
Cytochrome P450 1A2
  AC50: 10 µM (inconclusive)
Cytochrome P450 2C9
  AC50: inconclusive
